{"source": "patent US10639345B2", "about": "“Compositions for preserving photoreceptor cells, retinal pigment epithelial cells, or visual function” (Massachusetts Eye and Ear Infirmary, priority 2010, dated 2020)", "key": {"AIF": {"system": "AIF", "test": "AIF nuclear translocation (AIF/TUNEL double staining) after retinal detachment", "type": "in vivo", "conditions": "three days after retinal detachment", "method": "Immunohistochemistry (IHC) was performed as previously reported (Murakami Y et al. (2008) AM J PATHOL 173:1326-1338). Rabbit anti-AIF antibody (1:100; Cell Signaling Technology, Danvers, Mass.) was used as the primary antibody. The specimens were imaged by confocal microscopy using the Leica HCX APOL40× lens.\nImmunofluorescence was performed as previously reported (Hisatomi et al. (2008) J CLIN INVEST 118:2025-2038. The enucleated eyes were frozen in OCT compound (Sakura Finetechnical Co., Tokyo, Japan). Five μm-thick sections were cut, air dried and fixed in cold acetone for 10 minutes. Rabbit anti-AIF antibody (1:100; Cell Signaling Technology, Danvers, Mass.) was used as the primary antibody and incubated at 4° C. overnight. A non-immune serum was used as a negative control. Alexa Fluor 488-conjugated goat anti-rabbit IgG was used as the secondary antibody and incubated at room temperature for one hour. The specimens were imaged by confocal microscopy using the Leica HCX APOL40× lens.\nApoptosis-inducing factor (AIF) is a caspase-independent inducer of cell death, which is released from the mitochondria and translocates into the nuclei during cell death (Susin S A et al. (1999) NATURE 397:441-446). […]"}, "RIP-3−/− RPE cells": {"system": "RIP-3−/− RPE cells", "test": "Viability of RIP-3−/− RPE cells treated with poly I:C (Cell Counting Kit-8)", "type": "cell-based, mice", "method": "(§1) As described in Example 11, primary RPE cells were extracted from the retina of mice and cultured in the presence of 5 μg/ml of poly I:C for 48 hours or with PBS. Cell viability was measured using Cell Counting Kit-8 (Dojindo Laboratories, Kumamoto, Japan). This assay is based on the cleavage of 2-(2-methoxy-4-nitrophenyl)-3-(4-nitrophenyl)-5-(2,4-disulfophenyl)-2H-tetrazolium, monosodium salt (WST-8) by the mitochondrial dehydrogenase enzyme to produce a formazan dye. After incubation with WST-8 for two hours at 37° C., absorbance was measured at 450 nm to determine cell viability.\nWithout poly I:C treatment, the viability of RPE cells was similar in WT and RIP-3−/− cells."}, "photoreceptors [1]": {"system": "photoreceptors", "test": "Poly I:C-induced dry AMD model, ONL thickness", "type": "in vivo, mice", "excerpt": "In this example, the mechanism of photoreceptor cell death in dry AMD was investigated using a polyinosinic:polycytidylic acid (Poly I:C)-induced dry AMD model (Yang et al. (2009) NEJM 359(14):1456-63). Poly I:C is a synthetic double-stranded RNA (dsRNA) analog that activates toll-like receptor 3 (TLR3) signaling (FIG. 20A). Furthermore, dsRNA are known to exist in the drusen of human AMD patients. As depicted in FIG. 20A, activation of the TLR3 signaling results in activation of RIP-1 kinase pathway. […] In the experiments described herein, 2-3 μl of Poly I:C (1 mg/ml) was injected into the subretinal space of the eye (e.g., approximately 2-3 μg of Poly I:C was administered to the eye) to induce AMD.\nThe thickness of the outer nuclear layer (ONL) was also determined in WT or RIP-3−/− mice at 14 days following treatment with poly I:C. Sections were randomly selected from either WT or RIP-3−/− mice following poly I:C treatment and the retina was photographed. The ONL thickness was measured in each section by masked observers.\nTo determine the effect of Nec-1 and a pan-caspase inhibitor in the treatment of AMD, TUNEL assay was performed to assess photoreceptor cell death in the poly I:C induced AMD model. […] The thickness of ONL was also measured."}, "photoreceptors [2]": {"system": "photoreceptors", "test": "Normalized ONL thickness ratio after retinal detachment in RIP-3−/− mice", "protocol": "TUNEL assays were used to measure the amount of apoptotic and necrotic cell death (Grasl-Kraupp et al., HEPTALOGY (1995) 21(5):1465-8). TUNEL and quantification of TUNEL positive cells in ONL were performed as described above by using the ApopTag Fluorescein In Situ Apoptosis Detection Kit (Millipore, Billerica, Mass.). The ratio of the ONL thickness to the thickness of neuroretina in the central area of the detached retina was determined by National Institutes of Health ImageJ software and standardized by that in the attached retina. The data are expressed as normalized ONL thickness ratio [(ONL/neuroretina thickness in detached retina)/(ONL/neuroretina thickness in attached retina)]."}, "primary RPE cells": {"system": "primary RPE cells", "test": "Viability of primary RPE cells treated with poly I:C (Cell Counting Kit-8)", "type": "cell-based, mice", "conditions": "WT primary RPE cells, 5 μg/ml poly I:C for 48 hours", "method": "as §1"}, "Fas-L": {"system": "Fas-L", "test": "Fas ligand expression after retinal detachment (real-time PCR)", "type": "in vivo", "conditions": "compared to vehicle treatment", "method": "Total RNA extraction and reverse transcription were performed as previously reported (Nakazawa T et al. (2006) MOL VIS 12:867-878; Hisatomi T et al. (2008). J CLIN INVEST 118:2025-2038). A real-time PCR assay was performed with Prism 7700 Sequence Detection System (Applied Biosystems, Foster City, Calif.). TaqMan Gene Expression assays were also used to check the expression of MCP-1 (Rn00580555_m1), TNF-α (Rn99999017_m1), and Fas-L (Rn00563754_m1). For relative comparison of each gene, the Ct value of real-time PCR data was analyzed with the ΔΔCt method and normalized by an endogenous control (18S ribosomal RNA).\nTNF-α and Fas-L are potent inducer of programmed necrosis as well as apoptosis (Degterev A (2005) NAT CHEM BIOL 1:112-119). The effectiveness of a TNF-α blockade after retinal detachment was measured. […] However, other factors may also contribute to photoreceptor death, as the effect of TNF-α blockade was not as effective as that of Nec-1+Z-VAD treatment. Further, Fas ligand expression increased in Z-VAD-treated retina after retinal detachment compared to vehicle treatment (FIG. 12C), and may play a role in promoting necrotic photoreceptor death in Z-VAD-treated eyes."}, "photoreceptors [3]": {"system": "photoreceptors", "test": "TUNEL-positive cells after retinal detachment in RIP-3−/− mice", "type": "in vivo", "conditions": "three days after retinal detachment", "protocol": "The role of RIP-3 in RIP-mediated programmed necrosis in photoreceptor loss after retinal detachment was investigated in RIP-3 knockout (RIP-3−/−) mice. TUNEL assays were used to measure the amount of apoptotic and necrotic cell death (Grasl-Kraupp et al., HEPTALOGY (1995) 21(5):1465-8). TUNEL and quantification of TUNEL positive cells in ONL were performed as described above by using the ApopTag Fluorescein In Situ Apoptosis Detection Kit (Millipore, Billerica, Mass.)."}}, "note": "Where a SMILES comes first, the peptide text is derived from it. The star is where a group is joined. Cbz = O=C(OCc1ccccc1)*; CH2F = FC*", "data": [{"smiles": "COC(=O)CC(NC(=O)C(C)NC(=O)C(NC(=O)OCc1ccccc1)C(C)C)C(=O)CF", "note": "(stereo not drawn) [Z-VAD, Benzyloxycarbonyl-Val-Ala-Asp(OMe)-fluoromethylketone] (Cbz-Val-Ala-Asp(OMe)-CH2F; configuration not given here)", "values": [{"measurement": "AIF/TUNEL-double positive cells (AIF nuclear translocation)", "setting": "AIF", "value": "1021.9±233.9", "unit": "cells/mm^2"}, {"measurement": "viability of RPE cells", "setting": "RIP-3−/− RPE cells", "value": "protected from cell death"}, {"measurement": "ONL thickness", "setting": "photoreceptors [1]", "value": "minimal effect"}, {"measurement": "ONL thickness ratio", "setting": "photoreceptors [2]; day 3 and 5 after retinal detachment, RIP-3−/− retinas", "value": "augmented"}, {"measurement": "normalized ONL thickness ratio", "setting": "photoreceptors [2]; five days after retinal detachment, RIP-3−/− mice", "value": "0.841±0.042"}, {"measurement": "viability of RPE cells", "setting": "primary RPE cells", "value": "did not protect WT RPE cells"}, {"measurement": "Fas ligand expression", "setting": "Fas-L", "value": "increased"}, {"measurement": "number of TUNEL-positive cells", "setting": "photoreceptors [3]", "value": "407.7±188.9", "unit": "cells/mm^2"}]}]}
